Measured values reported in paper PMC7411605, “Xanthine Oxidase Inhibition and Anti-LDL Oxidation by Prenylated Isoflavones from Flemingia philippinensis Root” (Molecules, 2020).
Several values for one entry are separate records, joined by “and”; a condition that tells them apart may be missing. Equal entries are not always repeated. Where two headings read alike, the source gives them in different places.

Key:
[1] = target: T1, Bovine milk xanthine oxidase (XO, EC 1.17.3.2) (Bos taurus, UniProt P80457); experiment: Xanthine oxidase inhibition kinetics (Lineweaver–Burk and Dixon plots); type: biochemical; conditions: for Inhibition Mode: Lineweaver–Burk plots, xanthine 15, 30, 60 μM; for KIS: binding of inhibitor to enzyme-substrate complex, secondary plot of intercept
T1 construct: Xanthine oxidase from bovine milk (EC 1.17.3.2); purchased Sigma Aldrich Co., (St. Louis, MO, USA); host or cells: bovine milk
T1 sequence (P80457 whole entry): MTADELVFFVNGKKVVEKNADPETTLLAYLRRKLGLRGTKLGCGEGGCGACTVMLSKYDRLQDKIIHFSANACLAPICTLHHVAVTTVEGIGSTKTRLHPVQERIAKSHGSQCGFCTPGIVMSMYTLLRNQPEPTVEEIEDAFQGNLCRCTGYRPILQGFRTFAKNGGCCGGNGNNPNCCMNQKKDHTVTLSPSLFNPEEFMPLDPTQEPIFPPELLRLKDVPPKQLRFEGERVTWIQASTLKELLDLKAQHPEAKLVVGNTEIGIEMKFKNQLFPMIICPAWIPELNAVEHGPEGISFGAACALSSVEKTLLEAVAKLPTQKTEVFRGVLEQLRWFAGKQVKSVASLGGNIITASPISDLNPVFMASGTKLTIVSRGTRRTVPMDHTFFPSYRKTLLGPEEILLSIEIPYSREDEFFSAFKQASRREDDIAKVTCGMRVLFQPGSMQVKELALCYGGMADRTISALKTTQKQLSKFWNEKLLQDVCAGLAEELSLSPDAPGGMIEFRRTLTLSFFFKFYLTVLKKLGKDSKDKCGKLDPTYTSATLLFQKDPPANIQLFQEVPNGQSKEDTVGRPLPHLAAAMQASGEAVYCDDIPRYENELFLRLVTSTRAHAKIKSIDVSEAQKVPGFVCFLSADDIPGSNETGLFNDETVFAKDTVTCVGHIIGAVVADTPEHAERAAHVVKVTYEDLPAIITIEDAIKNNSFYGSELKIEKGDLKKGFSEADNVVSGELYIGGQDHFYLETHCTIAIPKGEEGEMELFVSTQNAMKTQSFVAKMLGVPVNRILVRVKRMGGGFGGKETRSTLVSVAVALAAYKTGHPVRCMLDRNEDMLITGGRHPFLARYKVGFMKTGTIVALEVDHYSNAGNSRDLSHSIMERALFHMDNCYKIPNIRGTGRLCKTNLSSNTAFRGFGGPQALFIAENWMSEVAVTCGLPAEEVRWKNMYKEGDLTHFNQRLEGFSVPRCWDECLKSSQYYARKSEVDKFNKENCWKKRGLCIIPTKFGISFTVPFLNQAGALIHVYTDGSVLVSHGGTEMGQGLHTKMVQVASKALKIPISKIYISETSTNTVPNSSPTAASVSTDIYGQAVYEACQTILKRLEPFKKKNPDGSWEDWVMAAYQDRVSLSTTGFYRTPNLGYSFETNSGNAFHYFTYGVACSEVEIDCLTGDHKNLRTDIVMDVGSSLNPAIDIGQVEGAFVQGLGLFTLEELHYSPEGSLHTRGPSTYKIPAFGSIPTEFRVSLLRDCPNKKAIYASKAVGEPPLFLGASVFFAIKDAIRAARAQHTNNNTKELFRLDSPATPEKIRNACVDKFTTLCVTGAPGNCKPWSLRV
Description: The inhibition mode and inhibitory constants were determined by Lineweaver–Burk and Dixon plots. For obtaining double reciprocal plots, was measured the reaction absorbance of the enzyme, inhibited by different concentrations of inhibitors, with three concentrations of xanthine (15, 30, and 60 μM) at 295 nm and 37 °C. The corresponding kinetic parameters, namely the Michaelis-Menten constant (Km), maximal velocity (Vmax), inhibitory constant (Ki), and dissociation constant of a binding site for the inhibitor to either free enzyme or the enzyme-substrate complex (KI and KIS) were determined by Equations (2)–(4).

[2] = target: T1, Bovine milk xanthine oxidase (XO, EC 1.17.3.2); experiment: Xanthine oxidase activity (uric acid formation at 295 nm); type: biochemical; conditions: sample concentration which leads to 50% xanthine oxidase activity loss; xanthine substrate, pH 7.5, 37 °C; read-out: IC50, xanthine oxidase inhibition (converted)
Description: The half-maximal inhibitory concentrations (IC50) were calculated according to the enzyme inhibition rate (%) derived from the change of uric acid formation in comparison with the concentration of inhibitors. The inhibition rate derived from the non-linear regression fitting to Equation (1). Inhibition rate (%) = 100 × [(rate of control reaction − rate of inhibitor reaction)/rate of control reaction](1)

[3] = target: T2, xanthine oxidase (Bos taurus, UniProt P80457); experiment: Fluorescence quenching of xanthine oxidase (binding affinity); design: species or system bovine; conditions: for Stern–Volmer constant KSV / Kd: excitation 290 nm, emission 300-400 nm; for Kd: read-out: binding constant KA (converted); for number of binding sites n: fluorescence quenching
T2 construct: Xanthine oxidase from bovine milk (EC 1.17.3.2); purchased Sigma Aldrich Co., (St. Louis, MO, USA); host or cells: bovine milk
T2 sequence (P80457 whole entry): as above
Description: The binding affinity between xanthine oxidase and isolated isoflavones were measured by fluorescence quenching method. For the fluorescence quenching experiments, the Trp intensities of xanthine oxidase were monitored wavelength of emission from 300 to 400 nm and excitation of 290 nm. The reaction mixture containing 180 μL of 200 mM sodium pyrophosphate/HCl (pH 7.5), 10 μL of isolated isoflavones diluted in DMSO (3.125, 6.25, 12.5, 25.0, and 50.0 μM), and 10 μL of 1 unit/mL xanthine oxidase was placed in black/flat bottom 96-well microplates. […] The quenching parameters such as the Stern–Volmer constant (KSV), binding constant (KA), and the number of binding sites (n) were determined by the Equations (5) and (6). F0 − F = 1 + KSV [Q](5) Log [(F0 − F)/F] = log KA + n log [Q]f(6)

[4] = test system: human LDL; experiment: Conjugated diene formation on Cu2+ induced LDL oxidation; type: biochemical; conditions: at 10 μM of compound; 234 nm, followed for 180 min
Description: The formation of conjugated dienes from oxLDL was assessed by the method. The conjugated diene formation occurred in the clear bottom 96-well plate. The mixture of each well containing 230 μL of 550 μg/mL LDL in the buffer (10 mM PBS, pH 7.4) and 10 μL of 250 μM CuSO4 (final concentration: 10 μM) in the presence or absence of isoflavones or probucol as a positive control (final concentration: 10 μM) were incubated at 37 °C for 4 h. Then, the reaction was screened at 234 nm for 180 min every 5 min, continuously, incubating in the SpectraMax M3 multi-mode microplate reader. In the observed absorbance spectra, the lag time of tested samples was obtained as the endpoint indicated in the lag phase.

[5] = test system: human LDL; experiment: TBARS assay of Cu2+ induced LDL oxidation; type: biochemical; conditions: for IC50: LDL 500 μg/mL, 10 μM Cu2+, 37 °C, 4 h; for Inhibition Rate: at 10 μM of compound, oxidized LDL induced by Cu2+
Description: Thiobarbituric acid reactive substances (TBARS) assay was carried out according to the previous method with minor modifications. The absorbance of a product of a reaction between thiobarbituric acid (TBA) and malondialdehyde (MDA) was measured at 540 nm. First, 220 μL of 500 μg/mL LDL in a buffer (10 mM PBS, pH 7.4), 10 μL of […], and 10 μL of different concentrations from 0 to 3 mM of isoflavones or probucol as a positive control were mixed in 1.5 mL Eppendorf tube and incubated at 37 °C for 4 h. After incubation, 100 μL of trichloroacetic acid (TCA) and 100 μL of 0.67% thiobarbituric acid (TBA)/0.05 N NaOH were added to the reaction mixture and heated in the water bath at 100 °C for 15 min. After heating, the mixture was cooled on the ice and centrifuged for 15 min at 3000 rpm. The absorbance of supernatant was measured and the IC50 values were calculated from the inhibition rate derived from Equation (1).

[6] = test system: human LDL; experiment: Conjugated diene formation on Cu2+ induced LDL oxidation; type: biochemical
[7] = test system: human LDL; experiment: Relative electrophoretic mobility (REM) of Cu2+ oxidized LDL; type: biochemical; conditions: 10 μM compound, 10 μM CuSO4, 16 h
Description: The relative electrophoretic mobility (REM) of native LDL and oxidized LDL induced by Cu^2+ was performed according to the procedures of references. Before the electrophoresis, the samples containing 10 μM of CuSO4 and 10 μM of nine isoflavones or probucol were treated into LDL (500 μg/mL), then incubated for 16 h at 37 °C in dark condition. The native LDL and pretreated LDL samples loaded onto 0.5% agarose gel in TAE buffer (40 mM Tris-acetate with 1 mM EDTA, pH 8.0) and electrophoresed for 50 min at 100 V. After the electrophoresis, the gel was fixed in 40% ethanol with 10% acetic acid for 30 min, stained with 0.15% coomassie brilliant blue R250, and LDL bands visualized by using the destaining solution (methanol:acetic acid:water, 3:2:15, v/v).

[8] = Dixon plots, read-out: Ki (inhibition constant)
[9] = binding of inhibitor to free enzyme, secondary plot of slope, read-out: KI

Row | SMILES | Ki [1, 8] | Inhibition Mode [1] | IC50 [2] | Stern–Volmer constant KSV [3] | Kd [3] | number of binding sites n [3] | Lag Time of conjugated diene formation [4] | IC50 [5] | Inhibition Rate [5] | KIS [1] | Ki [1, 9] | Lag Time of conjugated diene formation ([6]; 0.3 μM of compound) | Lag Time of conjugated diene formation ([6]; 0.6 μM of compound) | Lag Time of conjugated diene formation ([6]; 1.25 μM of compound) | fold more active than genistein in TBARS assay ([5]; ratio of TBARS IC50 values versus genistein (IC50 = 30.4 μM)) | Effect on mobility of oxidized LDL (REM) [7]
1 | O=c1c(-c2ccc(O)cc2)coc2cc(O)cc(O)c12 [Compound 1, genistein] | 11.5 µM | competitive inhibitor | 25 ± 2.3 µM | 18450 L/mol | 1.99 µM | 0.7268 | 80 min | 30.4 ± 1.5 µM | 20.3% | – | – | – | – | – | – | –
2 | CC(C)=CCc1c2c(c(O)c3c(=O)c(-c4ccc(O)c(O)c4)coc13)C=CC(C)(C)O2 [Compound 2, auriculasin] | 11.1 µM | Mixed type I | 12.4 µM | 77550 L/mol | 1.33 µM | 1.0359 | > 180 min | 2.4 µM | 95.9% | 28.1 µM | 10.8 µM | – | – | – | – | –
3 | CC(C)=CCc1cc(-c2coc3cc(O)cc(O)c3c2=O)c(CC=C(C)C)c(O)c1O [Compound 4, 5,7,3′,4′-tetrahydroxy-2′,5′-di(3-methylbut-2-enyl)isoflavone] | 11.5 µM | Mixed type I | 10.9 µM | 94970 L/mol | 1.12 µM | 1.4031 | > 180 min | 0.7 µM | 100% | 23.0 µM | 10.7 µM | 120 min | 160 min | 180 min | 40 fold | –
4 | C=CC(C)(C)C1=Cc2c(c(CC=C(C)C)c3occ(-c4ccc(O)c(O)c4)c(=O)c3c2O)OC1(C)C [Compound 5, flemiphilippinin A] | 12.8 µM | Mixed type I | 14.8 µM | 55310 L/mol | 1.38 µM | 1.0018 | > 180 min | 2.7 µM and 2.8 µM | 94.1% | 26.3 µM | 12.5 µM | – | – | – | – | –
5 | CC(C)=CCc1c(-c2coc3cc(O)cc(O)c3c2=O)cc2c(c1O)OC(C)(C)C=C2 [Compound 6, 5,7,3′-trihydroxy-2′-(3-methylbut-2-enyl)-4′,5′-(3,3-dimethylpyrano)isoflavone] | 19.3 µM | Mixed type I | 20.4 µM | 36450 L/mol | 1.6 µM | 0.8154 | – | 10.9 µM | 48.8% | 40.0 µM | 18.8 µM | – | – | – | – | clearly reduced
6 | CC(C)=CCc1c(O)c(CC=C(C)C)c2occ(-c3ccc(O)cc3)c(=O)c2c1O [Compound 7, 8-γ,γ-dimethylallylwighteone] | 11.3 µM | Mixed type I | 16.9 µM | 47970 L/mol | 1.5 µM | 0.8836 | 124 min | 15.2 µM | 38.7% | 12.9 µM | 7.2 µM | – | – | – | – | clearly reduced
7 | CC(C)=CCc1c2c(c3occ(-c4ccc(O)cc4)c(=O)c3c1O)C=CC(C)(C)O2 [Compound 8, osajin] | 33.9 µM | Mixed type I | 34.7 µM | 9870 L/mol | 2.14 µM | 0.6889 | 108 min | 24.6 µM | 25.4% | 52.4 µM | 35.1 µM | – | – | – | – | –
8 | COc1cc(-c2coc3c(CC=C(C)C)c(O)c(CC=C(C)C)c(O)c3c2=O)ccc1O [Compound 9, flemingsin] | 35.1 µM | Mixed type I | 36.4 µM | 9300 L/mol | 4.11 µM | 0.6736 | 128 min | 14.6 µM | 40.3% | 49.0 µM | 35.2 µM | – | – | – | – | clearly reduced
9 | CC(C)(Sc1cc(C(C)(C)C)c(O)c(C(C)(C)C)c1)Sc1cc(C(C)(C)C)c(O)c(C(C)(C)C)c1 [Probucol, probucol, reference compound] | – | – | – | – | – | – | 83 min | 35.1 µM | 16.4% | – | – | – | – | – | – | –
